Results from patent US9663508B2, “Biaryl acyl-sulfonamide compounds as sodium channel inhibitors” (AMGEN INC., priority 2013, dated 2017).

These molecules were tested against human Nav 1.5 (Homo sapiens (Human), UniProt Q14524) (assay: Nav 1.5 IonWorks Quattro (IWQ) in vitro assay). Conditions: human, HEK 293 cells stably transfected with human Nav 1.5; in-vitro Nav 1.5 IWQ data; read-out: NAV 1.5 IWQ (IC50).
Format: cell-based
Protocol: Nav 1.7 or Nav 1.5 Ion Works Quattro (IWQ) In Vitro Assay
HEK 293 Cells stably transfected with either human Nay 1.7 or human Nay 1.5 were recorded in population patch-clamp mode with the IonWorks® Quattro automated electrophysiology system in accordance with the manufacturer's specifications (Molecular Devices, LLC, Sunnyvale, Calif.). Sodium channel currents were measured in response to a train of depolarizations that induced successively greater inactivation.
Cells were held at −110 mV for three seconds (Nav 1.7) or half a second (Nav 1.5) from a holding voltage of −15 mV, then put through a series of 26 pulses of 150 msec duration to −20 mV at a frequency of 5 Hz. Cells were then left unclamped for a period of 3 to 8 minutes while a single concentration of test compound was added. Cells were then reclamped and put through the same voltage protocol. Current at the end of the 26th pulse to −20 mV was subtracted from the peak current evoked by the 26th pulse to −20 mV to correct for leak current. Percent block was calculated for each concentration in duplicate, and IC50 curves were fitted to percent block as a function of concentration.

Sequence of human Nav 1.5 (Q14524 whole entry): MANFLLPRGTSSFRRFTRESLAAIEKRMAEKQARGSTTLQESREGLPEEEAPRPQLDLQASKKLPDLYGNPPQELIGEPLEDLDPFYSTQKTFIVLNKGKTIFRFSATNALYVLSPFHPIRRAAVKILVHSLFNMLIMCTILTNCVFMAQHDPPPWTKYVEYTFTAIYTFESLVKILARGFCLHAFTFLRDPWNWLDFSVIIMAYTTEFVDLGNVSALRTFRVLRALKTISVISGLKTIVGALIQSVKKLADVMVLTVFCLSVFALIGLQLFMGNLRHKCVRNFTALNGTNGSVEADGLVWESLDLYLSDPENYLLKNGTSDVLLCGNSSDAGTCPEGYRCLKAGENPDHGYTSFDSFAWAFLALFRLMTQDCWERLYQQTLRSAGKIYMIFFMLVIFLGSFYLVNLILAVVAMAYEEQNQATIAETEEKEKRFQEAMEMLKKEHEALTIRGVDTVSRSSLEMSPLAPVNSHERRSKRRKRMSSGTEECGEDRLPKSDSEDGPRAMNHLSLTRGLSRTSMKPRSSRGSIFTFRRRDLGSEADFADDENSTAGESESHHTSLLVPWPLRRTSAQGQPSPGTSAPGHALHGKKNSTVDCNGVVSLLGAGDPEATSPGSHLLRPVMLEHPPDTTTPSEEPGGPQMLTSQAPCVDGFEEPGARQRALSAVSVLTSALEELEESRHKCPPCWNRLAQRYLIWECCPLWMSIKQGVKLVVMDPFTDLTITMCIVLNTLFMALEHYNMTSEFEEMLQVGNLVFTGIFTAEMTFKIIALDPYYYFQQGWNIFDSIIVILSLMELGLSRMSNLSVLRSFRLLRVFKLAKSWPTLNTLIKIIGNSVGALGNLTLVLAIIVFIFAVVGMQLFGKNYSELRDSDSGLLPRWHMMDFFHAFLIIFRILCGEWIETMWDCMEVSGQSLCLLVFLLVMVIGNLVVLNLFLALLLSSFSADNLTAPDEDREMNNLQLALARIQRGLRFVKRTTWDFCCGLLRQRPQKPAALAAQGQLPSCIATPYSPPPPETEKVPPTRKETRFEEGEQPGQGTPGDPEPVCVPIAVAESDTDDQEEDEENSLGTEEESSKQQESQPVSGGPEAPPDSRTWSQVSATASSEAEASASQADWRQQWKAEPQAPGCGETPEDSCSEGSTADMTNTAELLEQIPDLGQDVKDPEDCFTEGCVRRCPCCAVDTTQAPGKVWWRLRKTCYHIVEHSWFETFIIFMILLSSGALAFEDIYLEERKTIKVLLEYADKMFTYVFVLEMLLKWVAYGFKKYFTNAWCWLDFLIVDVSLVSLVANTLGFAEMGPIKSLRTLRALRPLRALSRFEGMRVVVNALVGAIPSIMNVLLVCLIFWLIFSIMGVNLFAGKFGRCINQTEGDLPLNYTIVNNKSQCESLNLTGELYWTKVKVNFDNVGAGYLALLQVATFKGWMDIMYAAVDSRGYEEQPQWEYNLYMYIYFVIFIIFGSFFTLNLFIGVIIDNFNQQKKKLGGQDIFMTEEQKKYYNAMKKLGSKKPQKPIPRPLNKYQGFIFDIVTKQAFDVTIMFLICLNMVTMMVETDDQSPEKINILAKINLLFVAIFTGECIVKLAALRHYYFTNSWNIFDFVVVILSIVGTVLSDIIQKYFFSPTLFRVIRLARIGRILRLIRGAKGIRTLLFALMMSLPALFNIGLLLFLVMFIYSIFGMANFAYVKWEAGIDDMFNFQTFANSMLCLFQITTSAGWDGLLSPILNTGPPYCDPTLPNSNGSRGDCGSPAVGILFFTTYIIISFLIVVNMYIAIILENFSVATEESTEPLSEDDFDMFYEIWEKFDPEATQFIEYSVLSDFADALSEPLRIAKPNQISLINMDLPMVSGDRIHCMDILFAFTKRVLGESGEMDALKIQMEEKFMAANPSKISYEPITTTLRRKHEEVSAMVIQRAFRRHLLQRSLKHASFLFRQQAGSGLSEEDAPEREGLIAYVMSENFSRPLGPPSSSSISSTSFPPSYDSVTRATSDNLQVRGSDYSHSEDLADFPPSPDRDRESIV

C[C@](Oc1ncc(-c2cc(F)c(C(=O)NS(C)(=O)=O)cc2F)cc1Cl)(c1ccccc1)C(F)(F)F (single isomer, unassigned) [Example 805] and C[C@@](Oc1ncc(-c2cc(F)c(C(=O)NS(C)(=O)=O)cc2F)cc1Cl)(c1ccccc1)C(F)(F)F (single isomer, unassigned) [Example 804] cannot be ordered by IC50: greater than 3000 nM for the first, greater than 3000 nM for the second.

Same assay, conditions: read-out: NAV 1.5 IWQ IC50

Cc1cc(C(=O)NS(C)(=O)=O)c(F)cc1-c1cnc(Oc2cc(F)cc(F)c2)c(Cl)c1 [Example 630, 4-(5-chloro-6-(3,5-difluorophenoxy)-3-pyridinyl)-2-fluoro-5-methyl-N-(methylsulfonyl)benzamide] and Cc1cc(C(=O)NS(C)(=O)=O)c(F)cc1-c1cnc(O[C@H](C)c2cc(Cl)ccc2Cl)c(Cl)c1 [Example 673, 4-(5-chloro-6-((1R)-1-(2,5-dichlorophenyl)ethoxy)-3-pyridinyl)-2-fluoro-5-methyl-N-(methylsulfonyl)benzamide] cannot be ordered by IC50: greater than 3000 nM for the first, greater than 10000 nM for the second.

CC(C)[C@@H](Oc1ncc(-c2cc(F)c(C(=O)NS(C)(=O)=O)cc2Cl)cc1Cl)c1ccccc1 [Example 594, 5-chloro-4-(5-chloro-6-(((1R)-2-methyl-1-phenylpropyl)oxy)-3-pyridinyl)-2-fluoro-N-(methylsulfonyl)benzamide, 5-chloro-4-(5-chloro-6-(((1S)-2-methyl-1-phenylpropyl)oxy)-3-pyridinyl)-2-fluoro-N-(methylsulfonyl)benzamide] and Cc1cc(C(=O)NS(C)(=O)=O)c(F)cc1-c1cnc(Oc2ccc(Cl)c3ccccc23)c(Cl)c1 [Example 613, 4-(5-chloro-6-((4-chloro-1-naphthalenyl)oxy)-3-pyridinyl)-2-fluoro-5-methyl-N-(methylsulfonyl)benzamide] cannot be ordered by IC50: greater than 3000 nM for the first, greater than 3000 nM for the second.

In the case of COc1cc(C(=O)NS(C)(=O)=O)ccc1-c1cnc(OCc2ccccc2Cl)c(Cl)c1 [Example 577, 4-(5-chloro-6-((2-chlorobenzyl)oxy)-3-pyridinyl)-3-methoxy-N-(methylsulfonyl)benzamide], the IC50 is reported as greater than 3000 nM.

The molecules below were run against human Nav1.7 (Homo sapiens (Human), UniProt Q15858) (assay: Nav 1.7 in vitro PatchXpress (PX) assay). Conditions: not given.
Sequence of human Nav1.7 (Q15858 whole entry): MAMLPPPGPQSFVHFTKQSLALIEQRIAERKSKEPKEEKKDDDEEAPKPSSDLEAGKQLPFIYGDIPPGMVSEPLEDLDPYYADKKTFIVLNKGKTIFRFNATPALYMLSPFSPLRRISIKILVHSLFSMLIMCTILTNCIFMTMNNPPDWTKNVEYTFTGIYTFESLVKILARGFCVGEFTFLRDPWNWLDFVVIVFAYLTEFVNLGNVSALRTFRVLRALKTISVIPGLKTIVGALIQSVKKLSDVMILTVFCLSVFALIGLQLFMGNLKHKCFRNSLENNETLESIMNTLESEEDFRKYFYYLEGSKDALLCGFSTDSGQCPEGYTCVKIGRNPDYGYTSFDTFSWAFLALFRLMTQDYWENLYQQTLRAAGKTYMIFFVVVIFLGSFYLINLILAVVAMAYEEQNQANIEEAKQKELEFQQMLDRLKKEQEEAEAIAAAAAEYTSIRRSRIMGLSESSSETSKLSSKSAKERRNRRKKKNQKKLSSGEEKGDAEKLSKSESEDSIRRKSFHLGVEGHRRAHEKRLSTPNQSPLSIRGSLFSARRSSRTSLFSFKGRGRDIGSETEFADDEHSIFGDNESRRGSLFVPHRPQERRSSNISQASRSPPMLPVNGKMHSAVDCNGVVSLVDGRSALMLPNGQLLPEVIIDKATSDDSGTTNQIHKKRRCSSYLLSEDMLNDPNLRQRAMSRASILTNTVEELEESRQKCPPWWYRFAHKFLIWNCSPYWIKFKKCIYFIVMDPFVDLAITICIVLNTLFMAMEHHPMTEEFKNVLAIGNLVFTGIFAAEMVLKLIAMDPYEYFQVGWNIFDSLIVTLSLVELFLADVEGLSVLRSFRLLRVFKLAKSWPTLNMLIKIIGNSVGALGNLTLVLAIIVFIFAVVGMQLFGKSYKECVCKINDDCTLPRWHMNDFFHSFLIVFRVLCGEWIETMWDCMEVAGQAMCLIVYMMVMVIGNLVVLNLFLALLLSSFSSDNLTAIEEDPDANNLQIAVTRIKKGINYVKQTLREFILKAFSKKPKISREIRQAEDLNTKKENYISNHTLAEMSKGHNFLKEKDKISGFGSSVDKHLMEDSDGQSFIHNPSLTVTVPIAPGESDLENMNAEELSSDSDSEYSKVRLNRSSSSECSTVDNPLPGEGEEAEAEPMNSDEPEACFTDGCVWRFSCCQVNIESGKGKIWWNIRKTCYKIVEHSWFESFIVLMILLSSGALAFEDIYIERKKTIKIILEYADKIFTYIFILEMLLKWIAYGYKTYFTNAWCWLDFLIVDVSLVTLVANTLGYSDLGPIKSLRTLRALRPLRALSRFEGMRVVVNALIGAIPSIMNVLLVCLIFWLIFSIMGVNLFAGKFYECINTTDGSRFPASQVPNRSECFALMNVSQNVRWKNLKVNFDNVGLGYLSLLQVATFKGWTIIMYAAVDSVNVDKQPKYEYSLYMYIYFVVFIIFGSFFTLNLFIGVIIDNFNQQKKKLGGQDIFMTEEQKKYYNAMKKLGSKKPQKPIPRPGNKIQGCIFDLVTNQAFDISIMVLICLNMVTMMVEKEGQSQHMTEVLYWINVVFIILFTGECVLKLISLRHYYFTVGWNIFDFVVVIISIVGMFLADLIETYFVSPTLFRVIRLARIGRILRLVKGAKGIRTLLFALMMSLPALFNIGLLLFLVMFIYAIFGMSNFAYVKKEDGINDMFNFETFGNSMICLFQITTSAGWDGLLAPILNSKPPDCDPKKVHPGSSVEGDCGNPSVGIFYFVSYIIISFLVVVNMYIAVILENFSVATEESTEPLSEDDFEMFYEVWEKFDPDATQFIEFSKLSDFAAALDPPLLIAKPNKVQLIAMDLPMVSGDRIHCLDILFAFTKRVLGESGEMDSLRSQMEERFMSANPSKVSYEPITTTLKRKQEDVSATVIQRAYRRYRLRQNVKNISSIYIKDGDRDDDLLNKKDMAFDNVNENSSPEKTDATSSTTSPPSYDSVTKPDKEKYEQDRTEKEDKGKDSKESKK
Format: cell-based

In order of falling IC50:
1. Cc1cc(C(=O)NS(C)(=O)=O)c(F)cc1-c1cnc(Oc2ccc(F)cc2F)c(Cl)c1 [Example 603, 4-(5-chloro-6-(2,4-difluorophenoxy)-3-pyridinyl)-2-fluoro-5-methyl-N-(methylsulfonyl)benzamide]  143 nM
2. Cc1cccc(Oc2ncc(-c3cc(F)c(C(=O)NS(C)(=O)=O)cc3C)cc2Cl)c1 [Example 621, 4-(5-chloro-6-(3-methylphenoxy)-3-pyridinyl)-2-fluoro-5-methyl-N-(methylsulfonyl)benzamide]  108 nM
3. COc1cc(C(=O)NS(C)(=O)=O)ccc1-c1cnc(OCc2ccccc2Cl)c(Cl)c1 [Example 577, 4-(5-chloro-6-((2-chlorobenzyl)oxy)-3-pyridinyl)-3-methoxy-N-(methylsulfonyl)benzamide]  95 nM
4. Cc1cc(C(=O)NS(C)(=O)=O)c(F)cc1-c1cnc(Oc2ccc(Cl)c3ccccc23)c(Cl)c1 [Example 613, 4-(5-chloro-6-((4-chloro-1-naphthalenyl)oxy)-3-pyridinyl)-2-fluoro-5-methyl-N-(methylsulfonyl)benzamide]  92.7 nM
5. C[C@@H](Oc1ncc(-c2cc(F)c(C(=O)NS(C)(=O)=O)cc2F)cc1Cl)c1ccc(F)cc1F [Example 574, 4-(5-chloro-6-((1R)-1-(2,4-difluorophenyl)ethoxy)-3-pyridinyl)-2,5-difluoro-N-(methylsulfonyl)benzamide]  88.8 nM
6. COc1cc(C(=O)NS(C)(=O)=O)ccc1-c1cnc(N2CCC[C@H]2C(C)C)c(Cl)c1 [Example 355, 4-(5-chloro-6-((2S)-2-(1-methylethyl)-1-pyrrolidinyl)-3-pyridinyl)-3-methoxy-N-(methylsulfonyl)benzamide]  87.7 nM
7. COc1cc(C(=O)NS(C)(=O)=O)ccc1-c1cnc(Oc2c(Cl)cccc2Cl)c(Cl)c1 [Example 581, 4-(5-chloro-6-(2,6-dichlorophenoxy)-3-pyridinyl)-3-methoxy-N-(methylsulfonyl)benzamide]  84.6 nM
8. COc1cc(C(=O)NS(C)(=O)=O)ccc1-c1cnc(Oc2ccc(Cl)cc2Cl)c(C#N)c1 [Example 691, 4-(5-cyano-6-(2,4-dichlorophenoxy)-3-pyridinyl)-3-methoxy-N-(methylsulfonyl)benzamide]  83.8 nM
9. Cc1cc(C(=O)NS(C)(=O)=O)c(F)cc1-c1cnc(Oc2cc(F)cc(F)c2)c(Cl)c1 [Example 630, 4-(5-chloro-6-(3,5-difluorophenoxy)-3-pyridinyl)-2-fluoro-5-methyl-N-(methylsulfonyl)benzamide]  77.8 nM
10. COc1cc(C(=O)NS(C)(=O)=O)ccc1-c1cnc(Oc2ccc(Cl)c(OC(F)(F)F)c2)c(Cl)c1 [Example 373, 4-(5-chloro-6-(4-chloro-3-(trifluoromethoxy)phenoxy)-3-pyridinyl)-3-methoxy-N-(methylsulfonyl)benzamide]  66.2 nM
11. COc1cc(C(=O)NS(C)(=O)=O)ccc1-c1cnc(Oc2cc(Cl)cc(C(F)(F)F)c2)c(Cl)c1 [Example 374, 4-(5-chloro-6-(3-chloro-5-(trifluoromethyl)phenoxy)-3-pyridinyl)-3-methoxy-N-(methylsulfonyl)benzamide]  58.4 nM
12. C[C@@H](Oc1ncc(-c2ccc(C(=O)NS(C)(=O)=O)cc2OC(F)F)cc1Cl)c1ccccc1 [Example 455, 4-(5-chloro-6-((1R)-1-phenylethoxy)-3-pyridinyl)-3-(difluoromethoxy)-N-(methylsulfonyl)benzamide]  58 nM
13. Cc1cc(C(=O)NS(C)(=O)=O)c(F)cc1-c1cnc(O[C@@H](C)c2cccc3ccccc23)c(Cl)c1 [Example 682, 4-(5-chloro-6-((1S)-1-(1-naphthalenyl)ethoxy)-3-pyridinyl)-2-fluoro-5-methyl-N-(methylsulfonyl)benzamide]  55.1 nM
14. COc1cc(C(=O)NS(C)(=O)=O)ccc1-c1cnc(Oc2cc(Cl)cc(Cl)c2)c(C(F)F)c1 [Example 382, 4-(6-(3,5-dichlorophenoxy)-5-(difluoromethyl)-3-pyridinyl)-3-methoxy-N-(methylsulfonyl)benzamide]  54 nM
15. CC(C)[C@@H](Oc1ncc(-c2cc(F)c(C(=O)NS(C)(=O)=O)cc2Cl)cc1Cl)c1ccccc1 [Example 594, 5-chloro-4-(5-chloro-6-(((1R)-2-methyl-1-phenylpropyl)oxy)-3-pyridinyl)-2-fluoro-N-(methylsulfonyl)benzamide, 5-chloro-4-(5-chloro-6-(((1S)-2-methyl-1-phenylpropyl)oxy)-3-pyridinyl)-2-fluoro-N-(methylsulfonyl)benzamide]  48.8 nM
16. CS(=O)(=O)NC(=O)c1cc(F)c(-c2cnc(Oc3c(Cl)cc(Cl)cc3Cl)c(Cl)c2)cc1F [Example 568, 4-(5-chloro-6-(2,4,6-trichlorophenoxy)-3-pyridinyl)-2,5-difluoro-N-(methylsulfonyl)benzamide]  48.5 nM
17. Cc1cc(Oc2ncc(-c3ccc(C(=O)NS(C)(=O)=O)cc3OC3COC3)cc2Cl)ccc1Cl [Example 413, 4-(5-chloro-6-(4-chloro-3-methylphenoxy)-3-pyridinyl)-N-(methylsulfonyl)-3-(3-oxetanyloxy)benzamide]  46.1 nM
18. CS(=O)(=O)NC(=O)c1ccc(-c2cnc(Oc3cc(Cl)cc(Cl)c3)c(Cl)c2)c(OC2COC2)c1 [Example 422, 4-(5-chloro-6-(3,5-dichlorophenoxy)-3-pyridinyl)-N-(methylsulfonyl)-3-(3-oxetanyloxy)benzamide]  31.3 nM
19. COc1cc(C(=O)NS(C)(=O)=O)ccc1-c1cnc(Oc2c(C)cc(Cl)cc2Cl)c(Cl)c1 [Example 578, 4-(5-Chloro-6-(2,4-Dichloro-6-Methylphenoxy)-Pyridin-3-yl)-3-Methoxy-N-(Methylsulfonyl)Benzamide]  29.6 nM
20. Cc1cc(Cl)cc(Cl)c1Oc1ncc(-c2cc(F)c(C(=O)NS(C)(=O)=O)cc2Cl)cc1Cl [Example 598, 5-chloro-4-(5-chloro-6-(2,4-dichloro-6-methylphenoxy)-3-pyridinyl)-2-fluoro-N-(methylsulfonyl)benzamide]  18.4 nM

Same assay, conditions: in-vitro Nav 1.7 PX data

In order of rising IC50:
1. COc1cc(C(=O)NS(C)(=O)=O)c(F)cc1-c1cnc(Oc2ccc(Cl)cc2Cl)c(Cl)c1 [Example 738, 4-(5-chloro-6-(2,4-dichlorophenoxy)-3-pyridinyl)-2-fluoro-5-methoxy-N-(methylsulfonyl)benzamide]  37 nM
2. Cc1c(Cl)cccc1Oc1ncc(-c2cc(F)c(C(=O)NS(C)(=O)=O)cc2OC(F)F)cc1Cl [Example 780, 4-(5-chloro-6-(3-chloro-2-methylphenoxy)-3-pyridinyl)-5-(difluoromethoxy)-2-fluoro-N-(methylsulfonyl)benzamide]  44.5 nM
3. COc1cc(C(=O)NS(C)(=O)=O)c(F)cc1-c1cnc(Oc2ccc(Cl)c(Cl)c2)c(Cl)c1 [Example 755, 4-(5-chloro-6-(3,4-dichlorophenoxy)-3-pyridinyl)-2-fluoro-5-methoxy-N-(methylsulfonyl)benzamide]  51.5 nM
4. COc1cc(C(=O)NS(C)(=O)=O)c(F)cc1-c1cnc(Oc2ccc(F)c(Cl)c2)c(Cl)c1 [Example 741, 4-(5-chloro-6-(3-chloro-4-fluorophenoxy)-3-pyridinyl)-2-fluoro-5-methoxy-N-(methylsulfonyl)benzamide]  56 nM
5. COc1cc(C(=O)NS(C)(=O)=O)c(F)cc1-c1cnc(SCc2cc(F)ccc2F)c(Cl)c1 [Example 730, 4-(5-chloro-6-((2,5-difluorobenzyl)sulfanyl)-3-pyridinyl)-2-fluoro-5-methoxy-N-(methylsulfonyl)benzamide]  58.5 nM
6. COc1cc(C(=O)NS(C)(=O)=O)c(F)cc1-c1cnc(Oc2cc(F)ccc2C)c(Cl)c1 [Example 743, 4-(5-chloro-6-(5-fluoro-2-methylphenoxy)-3-pyridinyl)-2-fluoro-5-methoxy-N-(methylsulfonyl)benzamide]  96.2 nM
7. COc1cc(C(=O)NS(C)(=O)=O)c(F)cc1-c1cnc(Oc2c(F)ccc(F)c2F)c(Cl)c1 [Example 766, 4-(5-chloro-6-(2,3,6-trifluorophenoxy)-3-pyridinyl)-2-fluoro-5-methoxy-N-(methylsulfonyl)benzamide]  96.3 nM
8. CCC(CC)Nc1ncc(-c2cc(F)c(C(=O)NS(C)(=O)=O)cc2OC)cc1Cl [Example 725, 4-(5-chloro-6-((1-ethylpropyl)amino)-3-pyridinyl)-2-fluoro-5-methoxy-N-(methylsulfonyl)benzamide]  96.5 nM
9. COc1cc(C(=O)NS(C)(=O)=O)c(F)cc1-c1cnc(O[C@@H]2CC[C@H]2C)c(Cl)c1 [Example 733, 4-(5-chloro-6-(((1R,2R)-2-methylcyclobutyl)oxy)-3-pyridinyl)-2-fluoro-5-methoxy-N-(methylsulfonyl)benzamide, 4-(5-chloro-6-(((1S,2S)-2-methylcyclobutyl)oxy)-3-pyridinyl)-2-fluoro-5-methoxy-N-(methylsulfonyl)benzamide]  220 nM
10. Cc1cc(C(=O)NS(C)(=O)=O)c(F)cc1-c1cnc(OCC(F)F)c(Cl)c1 [Example 808, 4-(5-chloro-6-(2,2-difluoroethoxy)-3-pyridinyl)-2-fluoro-5-methyl-N-(methylsulfonyl)benzamide]  2430 nM
11. COc1cc(C(=O)NS(C)(=O)=O)ccc1-c1cnc(COc2ccc(C#N)cc2)c(Cl)c1 [Example 819, 4-(5-Chloro-6-((4-Cyanophenoxy)Methyl)-Pyridin-3-yl)-3-Methoxy-N-(Methylsulfonyl)Benzamide]  6560 nM
